According to patent publication US7671211B1, “Substrates for thioredoxin reductase” (priority 1999, dated 2010):
Read-outs that look alike come from different tables or passages of the source.

What was measured:
[1] = biological target: T1, human thioredoxin reductase (Homo sapiens, UniProt Q16881); assay: Reduction of Compound A by human thioredoxin reductase (NADPH oxidation at 340 nm, selenol detection with DTNB); format: biochemical
T1 construct: Thioredoxin reductase (TrxR) from human placenta were purified to homogeneity; from tissue; host or cells: human placenta
T1 sequence (Q16881 1-499 isoform Q16881-5): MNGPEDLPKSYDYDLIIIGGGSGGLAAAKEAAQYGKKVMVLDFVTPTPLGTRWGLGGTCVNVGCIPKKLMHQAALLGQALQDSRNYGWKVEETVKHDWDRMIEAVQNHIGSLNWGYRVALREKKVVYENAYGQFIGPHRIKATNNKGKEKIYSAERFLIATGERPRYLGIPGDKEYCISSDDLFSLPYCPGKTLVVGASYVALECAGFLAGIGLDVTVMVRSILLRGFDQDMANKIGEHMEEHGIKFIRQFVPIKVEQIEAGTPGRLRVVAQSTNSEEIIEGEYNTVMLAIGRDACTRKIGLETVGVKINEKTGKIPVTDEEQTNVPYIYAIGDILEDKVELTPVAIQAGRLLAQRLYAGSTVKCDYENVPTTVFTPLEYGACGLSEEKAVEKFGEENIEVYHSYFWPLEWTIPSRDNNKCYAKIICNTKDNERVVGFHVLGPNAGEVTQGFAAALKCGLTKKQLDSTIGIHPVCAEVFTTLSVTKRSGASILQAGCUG
Protocol: (§1) Measurements of thioredoxin reductase activity were performed in TF buffer (50 mM Tris-Cl, 1 mM EDTA, pH 7.5) with 100 μM NADPH and a given amount of Compound A. Reactions were carried out with addition of 5 or 10 μl of stock solution of thioredoxin reductase in a final volume of 0.55 ml. Cuvettes used as reference contained the same amount of DMSO as in the samples and also thioredoxin reductase. Absorbance of the control cuvette was automatically subtracted by the spectrophotometer. The reactions were followed at 340 nm.
Compound A absorbs at 340 nm with a 4,000 M^−1cm^−1 molar extinction coefficient, and N-phenyl-2-carboxamidobenzene selenol, the reduction product of selenol by a dithiol, has half the absorption (2000 M^−1cm^−1) at 340 nm. The formation of the compound A-selenol was confirmed by measuring absorption spectra in the presence or absence of excess DTT. In calculations of the formation of compound A-selenol, a molar extinction coefficient of 8,200 M^−1cm^−1 was used since oxidation of NADPH to NADP^+ yields 6,200 M^−1cm^−1.
Compound A 50 μM (●) or 100 μM (□) was dissolved in 0.55 ml of a solution containing 50 mM Tris-Cl, 1 mM EDTA (pH 7.5) and 100 μM NADPH, and mixed with 40 nM human thioredoxin reductase. Absorbance at 340 nm was measured and corrected against the blank value (with the same amounts of enzyme, but without compound A). The same experiments using 50 μm (●) and 100 μM (Δ) Compound A mixed with 17 nM enzyme were performed.
The reaction was fast since with 50 μM Compound A the reaction was complete after 1 min. […] When 6 M guanidine hydrochloride containing DTNB was added to the cuvette at 7 min, an absorbance at 412 nm of 0.400 was measured indicating formation of selenol groups. Compound A itself gave no reaction with DTNB. The reaction with 100 μM compound A was seemingly slower from the decrease in absorbance at 340 nm using 40 nM enzyme.

[2] = biological target: T2, calf thymus thioredoxin reductase (Bos taurus, UniProt O62768); assay: Trx-catalyzed insulin disulfide reduction assay; format: biochemical; settings: for SH-group: 5 μM human Trx, 10 nM calf thymus thioredoxin reductase, 3 min, 20° C.; for Activity: relative to 0 μM = 100
T2 construct: Thioredoxin reductase (TrxR) from calf thymus or human placenta were purified to homogeneity; from tissue; host or cells: calf thymus
T2 sequence (O62768 1-499): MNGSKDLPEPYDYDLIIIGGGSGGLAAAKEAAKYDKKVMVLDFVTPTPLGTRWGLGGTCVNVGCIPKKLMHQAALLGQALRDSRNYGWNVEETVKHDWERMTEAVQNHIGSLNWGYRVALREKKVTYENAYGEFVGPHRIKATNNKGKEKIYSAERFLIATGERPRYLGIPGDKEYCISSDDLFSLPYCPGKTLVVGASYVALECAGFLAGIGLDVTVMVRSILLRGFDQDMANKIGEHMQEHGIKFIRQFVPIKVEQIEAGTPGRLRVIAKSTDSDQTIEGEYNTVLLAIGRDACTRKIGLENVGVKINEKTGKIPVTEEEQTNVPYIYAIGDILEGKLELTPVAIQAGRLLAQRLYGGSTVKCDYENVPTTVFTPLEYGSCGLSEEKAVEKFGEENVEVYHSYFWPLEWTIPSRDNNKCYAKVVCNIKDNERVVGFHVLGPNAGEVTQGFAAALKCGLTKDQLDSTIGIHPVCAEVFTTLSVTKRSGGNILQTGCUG
Protocol: (§2) The activity of thioredoxin reductase was determined in the insulin assay. A mixture of 100 mM potassium phosphate (pH 7.0), 2 mM NADPH, and 0.16 mM insulin was added with Compound A and thioredoxin, and then with thioredoxin reductase in a total volume of 0.55 ml for the reaction. The progress of reduction of insulin disulfides was followed at 340 nm. Generated sulfhydryl or selenol groups were measured at 412 nm by addition of 0.50 ml of a mixture of 6 M guanidine-HCl, 0.20 M Tris-Cl (pH 8.0), 1 mM DTNB and calculated using a molar extinction coefficient of 13,600 M^−1cm^−1. DTNB reducing activity of thioredoxin reductase by using NADPH was measured at 412 nm in 100 mM potassium phosphate (pH 7.0) containing 10 mM EDTA, 0.2 mM NADPH, 5 mM DTNB and 0.1 mg per ml of bovine serum albumin.
(§3) To test whether or not Compound A inhibited thioredoxin reductase, enzyme assays were performed.
(§4) Then 0.5 ml of a mixture containing 6 M guranidine HCl, 0.20 M Tris-HCl (pH 8.0) and 1 mM DTNB was added to stop the reaction and the absorbance at 412 nm was used to calculate the amount of SH-groups generated in insulin. In (B), 10 nM calf thymus thioredoxin reductase was preincubated with or without 50 μM compound A and 100 μM NADPH for 1 h. Then 10 μl of the resulting solution was added to 500 μl of a mixture of 0.1 M Tris-HCl (pH 8.0), 1 mM EDTA and 5 mM DTNB to determine activity at 412 nm. Activity is expressed as the amount of SH-groups generated (μM) after 3 min.

[3] = biological target: T2, calf thymus thioredoxin reductase; assay: Reduction of DTNB by thioredoxin reductase; format: biochemical
Protocol: as §2, §3, §4

E.coli Trx-(SH)2 = E.coli Trx-(SH)2 (Escherichia coli, UniProt P0AA25); assay: Oxidation of E.coli Trx-(SH)2 by compound A determined by fluorescence spectroscopy; format: biochemical; settings: 0.1 μM Trx-(SH)2 mixed with 0.1 μM compound A, pH 7.5, 22° C.
Protocol: Protein fluorescence was measured with a thermostated SPEX-Fluoro Max instrument. Trx-(SH)2 was prepared from E.coli Trx-S2 640 μM which was incubated at room temperature for 20 min with 10 mM DTT. DTT was subsequently removed by gel chromatography (on a NAP-5 column (Pharmacia) using N2 equilibrated buffer). Trx-(SH)2 was mixed with Compound A dissolved in a total volume of 3 ml of a mixture (pH 7.5) of 0.1 M potassium phosphate and 1 mM EDTA, and fluorescence was immediately measured in the spectrofluorimeter at 22° C. Excitation of fluorescence was at 290 nm and emission spectra from 300 to 500 nm were recorded. Fluorescence at 340 nm was used to follow the oxidation of Trx-(SH)2 to record the rate of the reaction.
Mammalian and E.coli Trx have the same active site GPC and reactivity with disulfides. […] N2 equilibrated 0.1 M potassium phosphate was added with 0.1 μM (1.2 μg/ml) of E.coli Trx-(SH)2 and then with 1 mM EDTA (pH 7.5) to prepare a sample. Fluorescence of the sample was excited at 290 nm. The […] at the wavelength range from 300 to 500 nm was recorded. Then 0.1 μM of compound A was added and a spectrum was recorded. […] This is the fastest reaction for oxidation of reduced thioedoxin by a low molecular weight compound.

[4] = biological target: T1, human thioredoxin reductase; assay: Reduction of hydrogen peroxide by human thioredoxin reductase (hydrogen peroxide reductase activity); format: biochemical; settings: for effect on reaction rate of hydrogen peroxide reduction: 4.5 μM Trx; for turnover of enzyme (hydrogen peroxide reduction) / fold increase of hydrogen peroxide reductase activity: 0.5 mM hydrogen peroxide, 17 nM human TrxR; for fold increase of hydrogen peroxide reductase activity: versus enzyme alone
Protocol: as §1
[…] The absorbance at 340 nm was determined against a blank with 17 nM thioredoxin reductase but without hydrogen peroxide. As a result, with 0.50 mM hydroperoxide a turnover number of 30×min^−1 was calculated. Addition of 2 μM compound A stimulated the activity with the enzyme which increased its activity to a turnover of 450×min^−1 or 15-fold. […] Thus, Compound A acts to dramatically increase the hydrogen peroxide reductase activity of thioredoxin reductase and also acts as a thioredoxin peroxidase mimic.
Addition of 4.5 μM thioredoxin to 17 nM thioredoxin reductase stimulated the reduction of hydrogen peroxide. […] The same conditions as in FIG. 5 were applied with only 17 nM thioredoxin reductase (●) and addition of 4.5 μM Trx (Δ). Then […] was added to adjust the final compound A concentration to […].
Thus compound A increased activity of the enzyme with lower more physiologically relevant concentrations, and this increase was about 25-fold. […] Activity is expressed as the variation ratio per min, ΔA340/min. […]

[5] = biological target: T1, human thioredoxin reductase; assay: as above; format: biochemical; settings: hydrogen peroxide 2 mM, TrxR 17 nM, human Trx 5 μM
[6] = biological target: T1, human thioredoxin reductase; settings: human Trx-S2, comparison value, cited from earlier work
[7] = 2 μM compound A plus 4.5 μM human Trx

E.coli Trx-(SH)2, sequence (P0AA25 whole entry): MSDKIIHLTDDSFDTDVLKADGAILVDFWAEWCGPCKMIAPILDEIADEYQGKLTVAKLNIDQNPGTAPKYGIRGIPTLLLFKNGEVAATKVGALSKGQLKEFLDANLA

O=c1c2ccccc2[se]n1-c1ccccc1 [Compound A, 2-phenyl-1,2-benzisoselenazol-3(2H)-one]
Kcal ([1]; 15 nM enzyme, 5, 10 and 20 μM compound A): 1000 ± 300 min⁻¹
Km ([1]; 15 nM enzyme, 5, 10 and 20 μM compound A, read-out: Km-value as substrate for thioredoxin reductase): < 5 µM
time until reaction complete ([1]; 50 μM Compound A, 40 nM human thioredoxin reductase, 100 μM NADPH): 1 min
absorbance at 412 nm after DTNB addition (formation of selenol groups) ([1]; 6 M guanidine hydrochloride containing DTNB added at 7 min, 50 μM Compound A, 40 nM enzyme): 0.400
effect in insulin disulfide reduction assay using thioredoxin and thioredoxin reductase [2]: only a small effect
SH-group ([2]; 5 μM Compound A): 70.6 µM
Activity ([2]; 5 μM Compound A): 89%
SH-group ([2]; 10 μM Compound A): 68.4 µM
Activity ([2]; 10 μM Compound A): 88%
inhibition of thioredoxin reductase with DTNB as substrate ([3]; 50 μM Compound A and 10 nM enzyme): No inhibition
SH-group ([3]; 50 μM Compound A preincubated with 10 nM enzyme and 100 μM NADPH for 1 h, after 3 min): 7.5 µM
Activity ([3]; 50 μM Compound A, preincubation 1 h, relative to 0 μM = 100): 103%
inhibition of the enzyme after preincubation with compound A ([3]; preincubation in the presence or absence of NADPH): did not inhibit
oxidation rate of Trx-(SH)2 (E.coli Trx-(SH)2): > 2e+07 M⁻¹ s⁻¹
effect on reaction rate of hydrogen peroxide reduction ([4]; 0.5 μM compound A, 17 nM thioredoxin reductase): increased the reaction rate
effect on reaction rate of hydrogen peroxide reduction ([4]; 5.5 μM compound A, 17 nM thioredoxin reductase): stimulated strongly
fold increase of enzyme activity at low hydrogen peroxide concentration ([4]; 100 μM hydrogen peroxide, 17 nM thioredoxin reductase, 2 μM Compound A): about 25 fold
turnover of enzyme (hydrogen peroxide reduction) ([4]; 2 μM compound A): 450 min⁻¹
turnover of enzyme (hydrogen peroxide reduction) [4, 7]: 900 min⁻¹
fold increase of hydrogen peroxide reductase activity [4, 7]: 30 fold
fold increase of hydrogen peroxide reductase activity ([4]; 2 μM compound A): 15 fold
turnover of Compound A [5]: 23 min⁻¹
enzyme turnover ([5]; compound A): 1328 min⁻¹
NADPH oxidation rate ([5]; same rate with 1, 2 and 5 μM compound A): 23 µM/min

B1: human Trx-S2: oxidized human thioredoxin, protein substrate of thioredoxin reductase, used for comparison of Km and Kcal (protein, UniProt P10599 2-105, looked up)
Thioredoxin: VKQIESKTAFQEALDAAGDKLVVVDFSATWCGPCKMIKPFFHSLSEKYSNVIFLEVDVDDCQDVASECEVKCMPTFQFFKKGQKVGEFSGANKEKLEATINELV
modifications: oxidized
notes: oxidized human thioredoxin, protein substrate of thioredoxin reductase, used for comparison of Km and Kcal
Kcal [6]: 3000 min⁻¹
Km ([6]; read-out: Km-value as substrate for thioredoxin reductase): 2.5 µM
